For experiment [1], the target named is T1, Aldo-keto reductase family 1 member B1 (Rattus norvegicus, UniProt P07943). Put plainly: Inhibition of ALR2 in Wistar rat eye lens assessed as reduction in NADPH consumption preincubated for 1 min followed by D,L-glyceraldehyde addition measured after 4 mins by spectrophotometric analysis.
Experiment [2] deals with Aldo-keto reductase family 1 member A1 (Rattus norvegicus, UniProt P51635). Kind of experiment: Inhibition of ALR1 in Wistar rat kidney assessed as reduction in NADPH consumption preincubated for 1 min followed by substrate addition measured after 4 mins by spectrophotometric analysis.
In experiment [3] the target is T1, Aldo-keto reductase family 1 member B1. Put plainly: Uncompetitive inhibition of ALR2 in Wistar rat eye lens assessed as reduction in NADPH consumption preincubated for 1 min followed by D,L-glyceraldehyde addition measured after 4 mins by spectrophotometric analysis.
For experiment [4], the target named is T2, Aldo-keto reductase family 1 member B1 (Homo sapiens, UniProt P15121). Put plainly: Uncompetitive inhibition of recombinant human AKR1B1 using D,L-glyceraldehyde as substrate.
Experiment [5] deals with T2, Aldo-keto reductase family 1 member B1. Kind of experiment: Inhibition of recombinant human AKR1B1 using D,L-glyceraldehyde as substrate.
The target of experiment [6] is Aldo-keto reductase family 1 member B10 (Homo sapiens, UniProt O60218). Kind of experiment: Inhibition of recombinant human AKR1B10.

A value given as a limit tells only on which side of the number the result lay.

Consider seven compounds from ChEMBL document CHEMBL4177632 (Bioorg Med Chem, 2017).

Aldo-keto reductase family 1 member A1, sequence (P51635 whole entry, looked up): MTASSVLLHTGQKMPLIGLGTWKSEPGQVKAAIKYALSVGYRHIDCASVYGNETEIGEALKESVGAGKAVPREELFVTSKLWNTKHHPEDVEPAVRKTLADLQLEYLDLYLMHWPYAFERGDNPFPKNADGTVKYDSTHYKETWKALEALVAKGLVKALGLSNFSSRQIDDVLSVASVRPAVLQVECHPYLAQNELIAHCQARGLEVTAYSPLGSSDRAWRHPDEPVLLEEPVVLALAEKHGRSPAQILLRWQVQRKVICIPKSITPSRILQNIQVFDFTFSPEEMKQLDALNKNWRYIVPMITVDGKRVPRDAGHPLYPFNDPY
Aldo-keto reductase family 1 member B10, sequence (O60218 whole entry): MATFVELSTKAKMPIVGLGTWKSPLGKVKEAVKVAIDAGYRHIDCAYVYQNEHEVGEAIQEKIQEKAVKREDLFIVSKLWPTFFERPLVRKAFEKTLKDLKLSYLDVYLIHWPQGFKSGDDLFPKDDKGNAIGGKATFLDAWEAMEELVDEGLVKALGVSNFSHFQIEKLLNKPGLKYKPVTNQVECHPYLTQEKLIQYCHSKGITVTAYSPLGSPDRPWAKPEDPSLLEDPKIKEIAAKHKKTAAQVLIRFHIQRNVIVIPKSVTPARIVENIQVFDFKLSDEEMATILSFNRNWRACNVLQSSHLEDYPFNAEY

What is called IC50 is the point on the concentration scale where inhibition reaches its midpoint. Turning to `Cc1c(C=O)c2ccccc2n1CC(=O)O`, the IC50 came to 340 nM in experiment [1] and 11800 nM in experiment [2].
In the case of `CC(=O)N1CCc2c(c3ccccc3n2CC(=O)O)C1`, the values for the IC50 in experiment [1] and in experiment [2] were 20.5 nM and 21900 nM, respectively.
For `CC(C)N1CCc2c(c3ccccc3n2CC(=O)O)C1` the same measures were 34200 nM and more than 100000 nM.
Usually Ki stands for the dissociation constant of the complex between target and ligand, obtained from inhibition or displacement. Take `CCOC(=O)N1CCc2c(c3cc(OC)ccc3n2CC(=O)O)C1`: the Ki in experiment [3] worked out at 16.9 nM; in experiment [4], 66.1 nM. For the same compound, the IC50 was 12.6 nM in experiment [1], 83.5 nM in experiment [5], 9430 nM in experiment [6] and 9980 nM in experiment [2].
On to `CC(=O)c1c(C)n(CC(=O)O)c2ccccc12`, for which the IC50 in experiment [1] stood at 169 nM; in experiment [2], 11200 nM.
On to `O=C(O)Cn1c2c(c3ccccc31)CN(C(=O)C1CC1)CC2`, for which the figures for the IC50 in experiment [1] and in experiment [2] were 57.5 nM and 7540 nM, respectively.
Consider `CCOC(=O)N1CCc2c(c3cc(C(=O)O)ccc3n2CC(=O)O)C1`, for which the IC50 in experiment [1] was 12.7 nM; in experiment [2] it was 4840 nM.
